Data taken from patent publication US8551963B2, “Imidazolothiazole compounds and methods of use thereof” (Ambit Biosciences Corporation, priority 2008, dated 2013).
In brackets after ≈: the same amount, converted by molar mass. Structures can show the parent of a compound that is named as a salt. Where two headings read alike, the source gives them in different places.

Key:
in vitro [1] = details: dog, microsomes
MV4;11 cells = assay: MV4;11 cellular proliferation assay (Cell Titer Blue); format: cell-based; details: Homo sapiens, MV4-11, 72 h, read-out: EC50 (50% inhibition of cellular proliferation)
[2] = Microsomal stability, pooled mouse liver microsomes; format: in vitro ADME; details: pH 7.4
Method: Microsomes were stored at −80° C. prior to use.
The final incubation volume was 600 μL.
The elimination rate constant (k)=(−slope)

RS4;11 cells = assay: RS4;11 cellular proliferation assay (Cell Titer Blue); format: cell-based; details: Homo sapiens, RS4-11, 48 h, read-out: EC50 (50% inhibition of cellular proliferation)
in vitro [3] = details: both, human, microsomes, pH 7.4
[4] = dog, microsomes, 1 μM, pH 7.4
In vivo clearance, dog = assay: In vivo clearance, dog
Text: (§1) Clearance was modest in dog microsomes, and high in Cynomolgus monkey microsomes. Using a comparison of in vitro and in vivo clearance, human clearance can be predicted. The in vitro intrinsic clearance is influenced by animal weight, hepatic blood flow, relative liver weight, and amount of protein/liver weight. […] Human clearance is predicted to be low (Table 2).

[5] = Predicted human in vivo clearance; details: predicted from comparison of in vitro and in vivo clearance
Text: as §1

in vitro [6] = details: rat, microsomes, pH 7.4
in vitro [7] = details: monkey, microsomes, pH 7.4
[8] = In vivo clearance, monkey
Text: as §1

In vivo clearance, rat = assay: In vivo clearance, rat
Text: as §1

In vivo clearance, mouse = details: clearance call in words
Text: as §1

plasma protein = assay: Plasma protein binding assay (equilibrium dialysis); format: in vitro ADME; details: 1 μM, equilibrium dialysis 16-20 hours at 37° C.
Method: Reagents: 1× Isotonic PBS (Mediatech, Inc., Herndon, Va.); 96 Well Equilibrium Dialyzer (Harvard Apparatus, Holliston, Mass.) and Animal plasma from species of interest.
1 μM solutions of test compound were prepared in both isotonic PBS and 10% animal plasma in isotonic PBS.
200 μl of each test solution was added to opposite sides of the equilibrium dialysis membrane.
Samples were incubated for 16-20 hours at 37° C.
After incubation, 100 μl sample was removed from the PBS side and diluted with 100 μl of 20% animal plasma in PBS.
100 μl sample was removed from the 10% animal plasma side and diluted with 100 μl of 10% animal plasma.
A calibration curve was prepared in 10% animal plasma to extrapolate unknown concentrations.
Samples were analyzed by LC/MS/MS.
50 μl of samples, calibration standards and quality control standards were extracted with 100 μl of acetonitrile containing 25 ng/ml of internal standard.
Calculations Calculate fraction unbound in 10% plasma Fu(10%)=1−(PC−PF)/PC) Convert 10% plasma value to 100% Fu(100%)=Fu10%/(10−9*Fu10%).

P-Glycoprotein = P-Glycoprotein (Homo sapiens (Human), UniProt P08183); assay: Digoxin bidirectional MDR1-MDCK permeability, Compound I-1 as an inhibitor; details: dog; for Papp A→B at 1 μM: MDCK-MDR1, pH 7.4, Digoxin PeAP→BL; for Papp B→A at 1 μM: MDCK-MDR1, pH 7.4, Digoxin PeBL→AP
Sequence of P-Glycoprotein (P08183 whole entry): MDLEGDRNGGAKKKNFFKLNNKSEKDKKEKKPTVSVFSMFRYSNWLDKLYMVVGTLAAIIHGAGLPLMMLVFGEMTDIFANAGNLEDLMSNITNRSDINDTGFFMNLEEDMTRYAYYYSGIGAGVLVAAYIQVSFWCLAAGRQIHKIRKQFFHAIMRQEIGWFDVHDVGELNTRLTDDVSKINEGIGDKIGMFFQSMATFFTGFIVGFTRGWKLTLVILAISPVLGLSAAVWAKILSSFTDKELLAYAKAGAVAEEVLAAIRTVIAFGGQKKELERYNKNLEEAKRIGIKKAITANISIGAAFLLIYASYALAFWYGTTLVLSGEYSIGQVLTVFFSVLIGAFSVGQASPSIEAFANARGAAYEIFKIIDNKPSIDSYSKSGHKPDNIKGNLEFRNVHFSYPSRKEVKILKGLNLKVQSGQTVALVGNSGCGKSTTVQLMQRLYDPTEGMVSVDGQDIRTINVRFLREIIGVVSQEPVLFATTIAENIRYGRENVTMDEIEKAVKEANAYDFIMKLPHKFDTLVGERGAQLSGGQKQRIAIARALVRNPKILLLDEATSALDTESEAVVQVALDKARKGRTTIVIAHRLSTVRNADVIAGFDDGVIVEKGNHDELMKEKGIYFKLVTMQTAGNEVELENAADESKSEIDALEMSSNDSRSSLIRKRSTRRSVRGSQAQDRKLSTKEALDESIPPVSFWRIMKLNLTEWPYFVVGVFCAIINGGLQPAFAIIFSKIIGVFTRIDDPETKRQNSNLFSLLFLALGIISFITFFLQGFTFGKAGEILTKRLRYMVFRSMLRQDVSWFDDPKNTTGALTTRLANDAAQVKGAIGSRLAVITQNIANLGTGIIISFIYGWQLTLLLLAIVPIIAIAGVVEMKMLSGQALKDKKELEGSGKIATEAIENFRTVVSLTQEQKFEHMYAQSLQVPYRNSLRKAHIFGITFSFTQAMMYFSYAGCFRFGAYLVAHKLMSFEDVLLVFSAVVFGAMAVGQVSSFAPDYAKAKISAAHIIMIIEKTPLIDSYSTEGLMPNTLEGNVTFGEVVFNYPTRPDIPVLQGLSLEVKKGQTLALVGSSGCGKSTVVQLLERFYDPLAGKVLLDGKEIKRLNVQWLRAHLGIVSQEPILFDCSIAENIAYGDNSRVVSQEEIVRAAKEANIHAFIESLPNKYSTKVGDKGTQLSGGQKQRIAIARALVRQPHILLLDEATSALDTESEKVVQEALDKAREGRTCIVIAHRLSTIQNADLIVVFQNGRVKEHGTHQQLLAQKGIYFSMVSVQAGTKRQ

[9] = Aqueous and surfactant solubility; format: physicochemical; details: room temperature overnight
P-glycoprotein (MDR1) = assay: in vitro; details: dog
MDR1-MDCK cells = details: dog, MDCK-MDR1, 10 μM, pH 7.4
[10] = Microsomal stability and metabolic turnover, pooled rat liver microsomes; details: pH 7.4
[11] = Microsomal stability and metabolic turnover, pooled dog liver microsomes; details: pH 7.4
[12] = Microsomal stability and metabolic turnover, pooled Cynomolgus monkey liver microsomes; details: pH 7.4
[13] = Microsomal stability and metabolic turnover, pooled human liver microsomes; details: both, pH 7.4
[14] = in vivo, read-out: In Vivo t1/2 (converted)
[15] = Table 17, Digoxin 1 μM alone, Std
[16] = Table 17, Digoxin 1 μM alone, Surf.
[17] = preliminary experiment, Digoxin 1 μM alone, Std
[18] = preliminary experiment, Digoxin 1 μM alone, Surf.

**Q.** What does the source list for `CC(C)(C)c1cc(NC(=O)Nc2ccc(-c3cn4c(n3)sc3cc(OCCN5CCOCC5)ccc34)cc2)no1` [Compound IA, N-(5-tert-butyl-isoxazol-3-yl)-N′-{4-[7-(2-morpholin-4-yl-ethoxy)imidazo[2,1-b][1,3]benzothiazol-2-yl]phenyl}urea]?
**A.** microsomal CLint at 1 μM (in vitro [1]; pH 7.4): 42 µL/min/mg; half-life at 1 μM (in vitro [1]; pH 7.4, Half-life): 33 min; EC50 (MV4;11 cells): 0.6 nM; half-life at 1 μM ([2]; mouse, microsomes): > 60 min; microsomal CLint at 1 μM ([2]; mouse, microsomes): < 23 µL/min/mg; EC50 (RS4;11 cells): 4 nM; half-life at 1 μM (in vitro [3]): > 60 min; microsomal CLint at 1 μM (in vitro [3]): < 23 µL/min/mg; half-life [4]: 24 min; In Vivo Cl (In vivo clearance, dog; clearance call in words): Modest; half-life (In vivo clearance, dog; [14]): 366 min; In Vivo Cl [5]: low and Low; half-life at 1 μM (in vitro [6]): > 60 min; microsomal CLint at 1 μM (in vitro [6]): < 23 µL/min/mg; half-life at 1 μM (in vitro [7]): 19 min; microsomal CLint at 1 μM (in vitro [7]): 73 µL/min/mg; In Vivo Cl ([8]; clearance call in words): High; half-life [8, 14]: 162 min; In Vivo Cl (In vivo clearance, rat; clearance call in words): Low; half-life (In vivo clearance, rat; [14]): 414 min; In Vivo Cl (In vivo clearance, mouse): Low

**Q.** For `CC(C)(C)c1cc(NC(=O)Nc2ccc(-c3cn4c(n3)sc3cc(OCCN5CCOCC5)ccc34)cc2)no1` [Compound IA, hydrochloride salt, N-(5-tert-butyl-isoxazol-3-yl)-N′-{4-[7-(2-morpholin-4-yl-ethoxy)imidazo[2,1-b][1,3]benzothiazol-2-yl]phenyl}urea, reference compound], which “Percentage of unbound compound in 10% plasma” value (plasma protein) is on record?
**A.** 17%

**Q.** What does the source list for `C[C@H]1O[C@@H](O[C@H]2[C@@H](O)C[C@H](O[C@H]3[C@@H](O)C[C@H](O[C@H]4CC[C@@]5(C)[C@H](CC[C@@H]6[C@@H]5C[C@@H](O)[C@]5(C)[C@@H](C7=CC(=O)OC7)CC[C@]65O)C4)O[C@@H]3C)O[C@@H]2C)C[C@H](O)[C@@H]1O` [Digoxin, reference compound]?
**A.** Papp A→B at 1 μM (P-Glycoprotein; [15]): 8.76 ×10⁻⁶ cm/s; Papp A→B at 1 μM (P-Glycoprotein; [16]): 2.21 ×10⁻⁶ cm/s; Papp A→B at 1 μM (P-Glycoprotein; [17]): 0.24 ×10⁻⁶ cm/s; Papp A→B at 1 μM (P-Glycoprotein; [18]): 2.91 ×10⁻⁶ cm/s; Papp B→A at 1 μM (P-Glycoprotein; [15]): 29.3 ×10⁻⁶ cm/s; Papp B→A at 1 μM (P-Glycoprotein; [16]): 4.93 ×10⁻⁶ cm/s; Papp B→A at 1 μM (P-Glycoprotein; [17]): 20 ×10⁻⁶ cm/s; Papp B→A at 1 μM (P-Glycoprotein; [18]): 6.03 ×10⁻⁶ cm/s

**Q.** Which results are given for `CC(=O)N1CCN(c2ccc(OCC3COC(Cn4ccnc4)(c4ccc(Cl)cc4Cl)O3)cc2)CC1` (stereo not drawn) [Ketoconazole]?
**A.** solubility ([9]; HBSS containing 0.05% Polysorbate 80, 2.5% DMSO, read-out: Average Aqueous Solubility, 0.05% Polysorbate 80): 86 µM (≈ 45.7 µg/mL); solubility ([9]; HBSS pH 7.4, 2.5% DMSO, read-out: Average Aqueous Solubility, pH 7.4): 18 µM (≈ 9.57 µg/mL)

**Q.** What does the source list for `CC(C)NCC(O)COc1cccc2[nH]ccc12` (stereo not drawn) [Pindolol]?
**A.** efflux ratio at 10 μM (P-glycoprotein (MDR1); MDCK-MDR1, pH 7.4, Assymetry Index): 1; Papp A→B at 10 μM (P-glycoprotein (MDR1); MDCK-MDR1, pH 7.4, PeAP→BL): 31.7 ×10⁻⁶ cm/s; Papp B→A at 10 μM (P-glycoprotein (MDR1); MDCK-MDR1, pH 7.4, PeBL→AP): 30.6 ×10⁻⁶ cm/s

**Q.** What does the source list for `CNC(=C[N+](=O)[O-])NCCSCc1ccc(CN(C)C)o1` [Ranitidine]?
**A.** Assymetry Index (MDR1-MDCK cells): 1.9; PeAP→BL (MDR1-MDCK cells): 1.63 ×10⁻⁶ cm/s; PeBL→AP (MDR1-MDCK cells): 3.02 ×10⁻⁶ cm/s

**Q.** What does the source list for `COC(=O)[C@H]1[C@H]2C[C@@H]3c4[nH]c5cc(OC)ccc5c4CCN3C[C@H]2C[C@@H](OC(=O)c2cc(OC)c(OC)c(OC)c2)[C@@H]1OC` [Reserpine]?
**A.** solubility ([9]; HBSS buffer with 0.05% Polysorbate 80, pH 7.4, aqueous with cosolvent or surfactant or cyclodextrin, kinetic from dmso stock, HBSS containing 0.05% Polysorbate 80, 2.5% DMSO, read-out: Average Aqueous Solubility, 0.05% Polysorbate 80): 5 µM (≈ 3.04 µg/mL); solubility ([9]; Hank's balanced salt solution (HBSS) buffer, aqueous buffer, kinetic from dmso stock, HBSS pH 7.4, 2.5% DMSO, read-out: Average Aqueous Solubility, pH 7.4): < 1 µM

**Q.** Which half-life at 1 μM [10] does the source give for `C[C@]12CC[C@H]3[C@@H](CCC4=CC(=O)CC[C@@]43C)[C@@H]1CC[C@@H]2O` [Testosterone] here?
**A.** 4 min

**Q.** And the half-life at 1 μM ([2]; mouse liver microsomes, 1 μM, 0.5 mg/mL, NADPH, read-out: Half-life)?
**A.** 6 min

**Q.** What about the half-life at 1 μM [11] of the same compound?
**A.** 60 min

**Q.** And the half-life at 1 μM [12]?
**A.** 3 min

**Q.** And the half-life at 1 μM [13]?
**A.** 11 min
